The source of these data is article PMC10329608, “Investigation of the structure-activity relationship at the N-terminal part of minigastrin analogs” (EJNMMI Research, 2023).

Data set [1] concerns the target T1, CCK-2R (Rattus norvegicus, UniProt P30553).
T1 construct: endogenous in cells; host or cells: AR42J cells
T1 sequence (P30553 1-452): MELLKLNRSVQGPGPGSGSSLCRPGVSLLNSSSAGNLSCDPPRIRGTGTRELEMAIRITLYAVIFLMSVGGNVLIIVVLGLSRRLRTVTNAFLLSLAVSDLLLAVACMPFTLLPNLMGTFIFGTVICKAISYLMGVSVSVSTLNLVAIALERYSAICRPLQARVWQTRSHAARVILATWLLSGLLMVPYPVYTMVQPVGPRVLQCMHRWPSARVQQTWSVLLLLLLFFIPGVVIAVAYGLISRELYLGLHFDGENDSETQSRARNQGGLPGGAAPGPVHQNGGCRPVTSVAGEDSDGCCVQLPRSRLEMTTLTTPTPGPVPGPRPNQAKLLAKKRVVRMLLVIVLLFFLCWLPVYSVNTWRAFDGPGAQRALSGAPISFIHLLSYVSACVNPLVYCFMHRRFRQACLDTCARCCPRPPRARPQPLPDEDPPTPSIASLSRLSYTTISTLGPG
The data set can be described thus: Competitive binding (IC50) on AR42J cells against [177Lu]Lu-DOTA-PP-F11N. Conditions: for IC50 / CCK-2R affinity (in words): AR42J cells; for IC50: 2.0 x 10^5 cells/well/mL, [177Lu]Lu-DOTA-PP-F11N 0.3 pmol/well as reference, 3 h, 37°C, natLu-labeled DOTA peptides, tetrapeptides unlabeled, read-out: IC50; for fold elevated IC50 value versus N-methylated tetrapeptides: B1 versus B3, B5 and B7 versus B3, B4 and B6; for CCK-2R affinity (in words): tetrapeptides. The method, then: IC50 values of all compounds were determined according to a previously published procedure. In brief, competitive binding studies were performed via co-incubation of increasing concentrations of the peptide of interest (10^−10 to 10^–4 M, in triplicate) together with the reference compound [^177Lu]Lu-DOTA-PP-F11N (0.3 pmol/well) on AR42J cells (2 × 10^5 cells per 1 mL/well) at 37 °C for 3 h. Table S1. CCK-2R affinity and lipophilicity data of the compounds evaluated. Affinity data were determined on AR42J cells (2.0 x 10^5 cells/well/mL) and [^177Lu]Lu-DOTA-PP-F11N (0.3 pmol/well) as radiolabeled reference (3 h, 37°C, RPMI 1640, 5 mM L-Gln, 5 mL non-essential amino acids (100x), 10% FCS + 5% BSA (v/v)).

The format of data set [2] is physicochemical. The conditions noted are these: pH 7.4. The procedure: Lipophilicity (depicted as n-octanol-phosphate-buffered saline solution (PBS, pH = 7.4) distribution coefficient, logD7.4) of ^177Lu-labeled minigastrin analogs was evaluated as previously published.

“Also recorded” adds a separate entry of the source. Starred links: 1 amine or outer side, 2 acyl side, 3 side chain; linkers in the order of their positions; H or OH if unused. Non-standard residues stand in square brackets, D forms with d. Residues, ends and D or L forms follow the SMILES beside them. *: point of attachment. DOTA = O=C(O)CN1CCN(CC(=O)O)CCN(CC(=O)*)CCN(CC(=O)O)CC1; d(γGlu) = O=C(O)[C@@H](CCC(=O)[*:2])N[*:1]; 1Nal = N[C@@H](Cc1cccc2ccccc12)C(=O)O; 2Nal = N[C@@H](Cc1ccc2ccccc2c1)C(=O)O; NMeNle = CCCC[C@H](NC)C(=O)O; Nle = CCCC[C@H](N)C(=O)O

Consider `CCCC[C@H](NC(=O)[C@@H](N)Cc1c[nH]c2ccccc12)C(=O)N[C@@H](CC(=O)O)C(=O)N[C@@H](Cc1cccc2ccccc12)C(N)=O` [B1, H-Trp-Nle-Asp-1-Nal-NH2] (H-W[Nle]D[1Nal]-NH2), for which, in data set [1], the IC50 (usually the concentration that gives 50% inhibition) turned out to be 297 ± 15 nM, the “fold elevated IC50 value versus N-methylated tetrapeptides” value amounted to 50 fold and the “CCK-2R affinity (in words)” value is “significant loss in CCK-2R affinity; also recorded: low CCK-2R affinity”.

`CCCC[C@H](NC(=O)[C@@H](N)Cc1c[nH]c2ccccc12)C(=O)N[C@@H](CC(=O)O)C(=O)N[C@@H](Cc1ccccc1)C(N)=O` [B2, H-Trp-Nle-Asp-Phe-NH2] (H-W[Nle]DF-NH2): in data set [1], the concentration for half-maximal inhibition (IC50) came to 466 ± 88 nM and the “CCK-2R affinity (in words)” value is on record as “significant loss in CCK-2R affinity”. For the same compound, the “CCK-2R affinity (in words)” value in data set [1] (listed as H-Trp-Nle-Asp-Phe-NH2) is “noticeably decreased CCK-2R affinity”.

For `CCCC[C@@H](C(=O)N[C@@H](CC(=O)O)C(=O)N[C@@H](Cc1cccc2ccccc12)C(N)=O)N(C)C(=O)[C@@H](N)Cc1c[nH]c2ccccc12` [B3, H-Trp-(N-Me)Nle-Asp-1-Nal-NH2] (H-W[NMeNle]D[1Nal]-NH2), the “CCK-2R affinity (in words)” value in data set [1] is reported as “CCK-2R affinities in the low nanomolar range”.

On to `CCCC[C@@H](C(=O)N[C@@H](CC(=O)O)C(=O)N[C@@H](Cc1ccccc1)C(N)=O)N(C)C(=O)[C@@H](N)Cc1c[nH]c2ccccc12` [B4, H-Trp-(N-Me)Nle-Asp-Phe-NH2] (H-W[NMeNle]DF-NH2), for which the “CCK-2R affinity (in words)” value in data set [1] is “CCK-2R affinities in the low nanomolar range”.

In the case of `CCCC[C@@H](C(=O)N[C@@H](CC(=O)O)C(=O)N[C@@H](Cc1ccc2ccccc2c1)C(N)=O)N(C)C(=O)[C@@H](N)Cc1c[nH]c2ccccc12` [B5, H-Trp-(N-Me)Nle-Asp-2-Nal-NH2] (H-W[NMeNle]D[2Nal]-NH2), in data set [1], the “fold elevated IC50 value versus N-methylated tetrapeptides” value is listed as 3.5- to 19 fold.

`CCCC[C@@H](C(=O)N[C@@H](CC(=O)O)C(=O)N[C@@H](Cc1ccc(O)cc1)C(N)=O)N(C)C(=O)[C@@H](N)Cc1c[nH]c2ccccc12` [B6, H-Trp-(N-Me)Nle-Asp-Tyr-NH2] (H-W[NMeNle]DY-NH2): the “CCK-2R affinity (in words)” value in data set [1] is “CCK-2R affinities in the low nanomolar range”.

As for `CCCC[C@@H](C(=O)N[C@@H](CC(=O)O)C(=O)N[C@@H](Cc1c[nH]c2ccccc12)C(N)=O)N(C)C(=O)[C@@H](N)Cc1c[nH]c2ccccc12` [B7, H-Trp-(N-Me)Nle-Asp-Trp-NH2] (H-W[NMeNle]DW-NH2), in data set [1], the “fold elevated IC50 value versus N-methylated tetrapeptides” value was 3.5- to 19 fold.

Turning to `CCCC[C@@H](C(=O)N[C@@H](CC(=O)O)C(=O)N[C@@H](Cc1cccc2ccccc12)C(N)=O)N(C)C(=O)[C@H](Cc1c[nH]c2ccccc12)NC(=O)CNC(=O)CNC(=O)CNC(=O)CNC(=O)CN1CCN(CC(=O)O)CCN(CC(=O)O)CCN(CC(=O)O)CC1` [[^nat/177Lu]Lu-DOTA-CCK-55, metal not drawn] ({DOTA}-GGGGW[NMeNle]D[1Nal]-NH2), in data set [2], the pH-dependent lipophilicity (logD) (usually the decadic logarithm of the distribution of all forms, ionised or not, between an organic phase and buffer at a given pH) is -2.09 ± 0.07; the logD7.4 entry was “‒2.7 to ‒2.1”.

`CCCC[C@@H](C(=O)N[C@@H](CC(=O)O)C(=O)N[C@@H](Cc1cccc2ccccc12)C(N)=O)N(C)C(=O)[C@H](Cc1c[nH]c2ccccc12)NC(=O)CNC(=O)[C@H](Cc1ccc(O)cc1)NC(=O)CNC(=O)CNC(=O)CN1CCN(CC(=O)O)CCN(CC(=O)O)CCN(CC(=O)O)CC1` [[^nat/177Lu]Lu-DOTA-CCK-56, metal not drawn] ({DOTA}-GGYGW[NMeNle]D[1Nal]-NH2): in data set [2], the pH-dependent lipophilicity (logD) was -1.38 ± 0.07 and the logD7.4 entry is “− 1.9 to − 1.2”.

For `CCCC[C@@H](C(=O)N[C@@H](CC(=O)O)C(=O)N[C@@H](Cc1cccc2ccccc12)C(N)=O)N(C)C(=O)[C@H](Cc1c[nH]c2ccccc12)NC(=O)CNC(=O)CNC(=O)[C@H](C)NC(=O)CNC(=O)CN1CCN(CC(=O)O)CCN(CC(=O)O)CCN(CC(=O)O)CC1` [[^nat/177Lu]Lu-DOTA-CCK-57, metal not drawn] ({DOTA}-GAGGW[NMeNle]D[1Nal]-NH2), in data set [1], the half-maximal inhibitory concentration (IC50) was found to be 9.67 ± 1.74 nM. Besides, in data set [2], the pH-dependent lipophilicity (logD) is -1.94 ± 0.06 and the logD7.4 entry is “− 1.9 to − 1.2”.

As to `CCCC[C@@H](C(=O)N[C@@H](CC(=O)O)C(=O)N[C@@H](Cc1cccc2ccccc12)C(N)=O)N(C)C(=O)[C@H](Cc1c[nH]c2ccccc12)NC(=O)CNC(=O)CNC(=O)CNC(=O)CC[C@@H](NC(=O)CN1CCN(CC(=O)O)CCN(CC(=O)O)CCN(CC(=O)O)CC1)C(=O)O` [[^nat/177Lu]Lu-DOTA-CCK-58, metal not drawn] ({DOTA-d(γGlu)}-GGGW[NMeNle]D[1Nal]-NH2), in data set [2], the log distribution coefficient (logD) is -2.66 ± 0.06 and the logD7.4 entry is listed as “‒2.7 to ‒2.1”.

In the case of `CCCC[C@@H](C(=O)N[C@@H](CC(=O)O)C(=O)N[C@@H](Cc1cccc2ccccc12)C(N)=O)N(C)C(=O)[C@H](Cc1c[nH]c2ccccc12)NC(=O)CNC(=O)[C@H](Cc1ccc(O)cc1)NC(=O)[C@H](C)NC(=O)CNC(=O)CN1CCN(CC(=O)O)CCN(CC(=O)O)CCN(CC(=O)O)CC1` [[^nat/177Lu]Lu-DOTA-CCK-59, metal not drawn] ({DOTA}-GAYGW[NMeNle]D[1Nal]-NH2), in data set [2], the logD was -1.26 ± 0.08 and the logD7.4 result was “− 1.9 to − 1.2”.

Consider `CCCC[C@@H](C(=O)N[C@@H](CC(=O)O)C(=O)N[C@@H](Cc1cccc2ccccc12)C(N)=O)N(C)C(=O)[C@H](Cc1c[nH]c2ccccc12)NC(=O)CNC(=O)[C@H](Cc1ccc(O)cc1)NC(=O)CNC(=O)CC[C@@H](NC(=O)CN1CCN(CC(=O)O)CCN(CC(=O)O)CCN(CC(=O)O)CC1)C(=O)O` [[^nat/177Lu]Lu-DOTA-CCK-60, metal not drawn] ({DOTA-d(γGlu)}-GYGW[NMeNle]D[1Nal]-NH2), for which, in data set [2], the log distribution coefficient (logD) was -2.63 ± 0.05 and the logD7.4 result is reported as “‒2.7 to ‒2.1”.

Turning to `CCCC[C@@H](C(=O)N[C@@H](CC(=O)O)C(=O)N[C@@H](Cc1cccc2ccccc12)C(N)=O)N(C)C(=O)[C@H](Cc1c[nH]c2ccccc12)NC(=O)CNC(=O)CNC(=O)[C@H](C)NC(=O)CC[C@@H](NC(=O)CN1CCN(CC(=O)O)CCN(CC(=O)O)CCN(CC(=O)O)CC1)C(=O)O` [[^nat/177Lu]Lu-DOTA-CCK-61, metal not drawn] ({DOTA-d(γGlu)}-AGGW[NMeNle]D[1Nal]-NH2), in data set [2], the logD was -2.56 ± 0.09 and the logD7.4 result is listed as “‒2.7 to ‒2.1”.

Regarding `CCCC[C@@H](C(=O)N[C@@H](CC(=O)O)C(=O)N[C@@H](Cc1cccc2ccccc12)C(N)=O)N(C)C(=O)[C@H](Cc1c[nH]c2ccccc12)NC(=O)CNC(=O)CN1CCN(CC(=O)O)CCN(CC(=O)O)CCN(CC(=O)O)CC1` [[^nat/177Lu]Lu-DOTA-CCK-62, DOTA-Gly-Trp-(N-Me)Nle-Asp-1-Nal-NH2, metal not drawn] ({DOTA}-GW[NMeNle]D[1Nal]-NH2), in data set [2], the log distribution coefficient (logD) was -1.34 ± 0.08 and the logD7.4 result is recorded as “− 1.9 to − 1.2”.

As for `CCCC[C@@H](C(=O)N[C@@H](CC(=O)O)C(=O)N[C@@H](Cc1cccc2ccccc12)C(N)=O)N(C)C(=O)[C@H](Cc1c[nH]c2ccccc12)NC(=O)CNC(=O)[C@H](Cc1ccc(O)cc1)NC(=O)[C@H](C)NC(=O)CC[C@@H](NC(=O)CN1CCN(CC(=O)O)CCN(CC(=O)O)CCN(CC(=O)O)CC1)C(=O)O` [[^nat/177Lu]Lu-DOTA-γ-MGS5, DOTA-D-γ-Glu-Ala-Tyr-Gly-Trp-(N-Me)Nle-Asp-1-Nal-NH2, metal not drawn, reference compound] ({DOTA-d(γGlu)}-AYGW[NMeNle]D[1Nal]-NH2), in data set [2], the logD is -2.24 ± 0.04 and the logD7.4 entry was “− 2.24 ± 0.04”.
